According to patent publication US20190119193A1, “COMPOSITION FOR REGULATING PLANT GROWTH, METHOD FOR TREATING PLANTS THEREWITH, AND ACTIVE INGREDIENT THEREOF” (Ivan Aleksandrovich Starikov, priority 2016, published 2019):

System: alfalfa seeds (“Vega” variety)
Assay: Laboratory tests of DMOA and DEOA for alfalfa seeds
Type: in vivo
Details: for Germinative energy: day 3; for Germinative capacity / Number of lateral roots / Sprout height / Taproot length: day 7
Description: After that DMOA and DEOA were dissolved in dimethyl sulfoxide to give solutions of 10 g/L concentration, then water was added to give aqueous solutions of DMOA with concentrations of 5.5·10^−5 M, 5.5·10^−6 M, 5.5·10^−7 M, 5.5·10^−8 M, 5.5·10^−9 M and DEOA with concentrations of 4.8·10^−5 M, 4.8·10^−6 M, 4.8·10^−7 M, 4.8·10^−8 M, 4.8·10^−9 M.
The obtained aqueous solutions of DMOA and DEOA were tested in the Scientific Center of Soil-Ecological Reasearch of the Federal State-Funded Educational Institution of Higher Education “Russian State Agrarian University—Moscow Agricultural Academy named after K. A. Timiryazev” (Moscow, 2015) according to the method described by T. A. Sergeeva (Method of laboratory testing of herbicides, Plant protection, 1963, No. 2, pp. 42-43). The primary laboratory screening of DMOA and DEOA was carried out on the seeds of five different crops: sunflower of “Voronezh 638” variety, soybean of “Vilana” variety, alfalfa of “Vega” variety, cucumber of “Nezhinsky” variety and tomato of “Volgogradets” variety.
Water was used as a reference.
A single experiment was carried out in a Petri dish. A circle of filter paper was laid at the bottom of the dish and treated with 5 ml of the work solution selected for the experiment. After that 25 seeds were uniformly laid on the surface of the treated filter paper. The Petri dish was kept at a temperature of 21-23° C. with illumination by fluorescent lamps for 7 days. The fourfold replication of the experiment within a single variant was applied.
The experiment identified the number and percentage of normally germinated seeds on day 3 (germinative energy) and on day 7 (germinative capacity) after the beginning of the experiment. On day 7 the main biometric parameters were also measured: sprout height (mm), taproot length (mm) and number of lateral roots (pcs).
The results were processed with the method of variance analysis with the help of STRAZ software in order to get the LSD0.05 (least significant difference between the test results on 5% significance level).

## CCOC(=O)C=C([O-])C(=O)OCC.[Na+] [DEOA, sodium salt of diethyl ester of oxaloacetic acid]
4.8 · 10^−5 M
  Germinative energy: 93%
  Germinative capacity: 97%
  Number of lateral roots: 0.1 pcs.
  Sprout height: 34.9 ↑↑ mm
  Taproot length: 41.9 ↑ mm
4.8 · 10^−6 M
  Germinative energy: 73%
  Germinative capacity: 80%
  Number of lateral roots: 0.0 pcs.
  Sprout height: 32.5 ↑ mm
  Taproot length: 37.5 ↑ mm
4.8 · 10^−7 M
  Germinative energy: 88%
  Germinative capacity: 93%
  Number of lateral roots: 0.5 pcs.
  Sprout height: 33.5 ↑ mm
  Taproot length: 32.2 mm
4.8 · 10^−8 M
  Germinative energy: 73%
  Germinative capacity: 97%
  Number of lateral roots: 0.1 pcs.
  Sprout height: 32.4 ↑ mm
  Taproot length: 42.3 ↑ mm
4.8 · 10^−9 M
  Germinative energy: 80%
  Germinative capacity: 87%
  Number of lateral roots: 0.7 ↑ pcs.
  Sprout height: 28.5 mm
  Taproot length: 34.6 mm

## Sodium salt of dimethyl ester of oxaloacetic acid [DMOA]
5.5 · 10^−5 M
  Germinative energy: 93%
  Germinative capacity: 100 ↑ %
  Number of lateral roots: 0.6 ↑ pcs.
  Sprout height: 30.0 mm
  Taproot length: 28.1 mm
5.5 · 10^−6 M
  Germinative energy: 88%
  Germinative capacity: 100 ↑ %
  Number of lateral roots: 0.7 ↑ pcs.
  Sprout height: 29.0 mm
  Taproot length: 30.9 mm
5.5 · 10^−7 M
  Germinative energy: 88%
  Germinative capacity: 93%
  Number of lateral roots: 0.6 ↑ pcs.
  Sprout height: 28.9 mm
  Taproot length: 31.3 mm
5.5 · 10^−8 M
  Germinative energy: 98 ↑ %
  Germinative capacity: 93%
  Number of lateral roots: 0.5 ↑ pcs.
  Sprout height: 28.9 mm
  Taproot length: 31.2 mm
5.5 · 10^−9 M
  Germinative energy: 88%
  Germinative capacity: 100 ↑ %
  Number of lateral roots: 0.6 ↑ pcs.
  Sprout height: 30.1 mm
  Taproot length: 35.6 mm
